# Laboratory results as given in ChEMBL document CHEMBL1134620, “Synthesis of potential antidipsotropic isoflavones: inhibitors of the mitochondrial monoamine oxidase-aldehyde dehydrogenase pathway” (J Med Chem, 2001).
# Columns and labels:
# [1] = target: Monoamine oxidase (Mesocricetus auratus)
# [2] = target: Aldehyde dehydrogenase, mitochondrial (Mesocricetus auratus); experiment: Inhibition of hamster liver aldehyde dehydrogenase ALDH-2
# [3] = tested on: Aldehyde dehydrogenase, mitochondrial (Mesocricetus auratus); experiment: Inhibition of hamster liver aldehyde dehydrogenase ALDH-2; No inhibition uM
# [4] = tested on: Monoamine oxidase (Mesocricetus auratus); experiment: Inhibition of hamster liver mitochondrial monoamine oxidase MAO
compound,measurement,setting,value
CC(C)Oc1ccc2c(=O)c(-c3ccc(O)cc3)coc2c1,IC50,[1],0.2 µM
O=c1c(-c2ccc(O)cc2)coc2cc(OCCCBr)ccc12,IC50,[2],0.26 µM
O=c1c(-c2ccc(O)cc2)coc2cc(OCCCCCCCCCO)ccc12,IC50,[1],> 9 µM
O=C(O)CCCCCCCOc1ccc2c(=O)c(-c3ccc(O)cc3)coc2c1,IC50,[1],6.5 µM
O=c1c(-c2ccc(O)cc2)coc2cc(OCCCCCCO)ccc12,IC50,[1],> 9 µM
CCOC(=O)C(C)Oc1ccc(-c2coc3cc(OC(C)C(=O)OCC)ccc3c2=O)cc1 (stereo not given),NI,[3],No inhibition
same,NI,[4],No inhibition
O=C(O)COc1ccc2c(=O)c(-c3ccc(O)cc3)coc2c1,IC50,[1],>> 9 uM
CCOC(=O)CCCCCOc1ccc2c(=O)c(-c3ccc(O)cc3)coc2c1,IC50,[1],5.3 µM
NCCCCOc1ccc2c(=O)c(-c3ccc(O)cc3)coc2c1,IC50,[1],> 9 µM
O=C(O)CCCCOc1ccc2c(=O)c(-c3ccc(O)cc3)coc2c1,IC50,[1],5 µM
O=c1c(-c2ccc(OCCCCCCCCCO)cc2)coc2cc(OCCCCCCCCCO)ccc12,NI,[3],No inhibition
same,NI,[4],No inhibition
NCCCCCCOc1ccc2c(=O)c(-c3ccc(O)cc3)coc2c1,IC50,[1],>> 9 uM
CC(C)Oc1ccc(-c2coc3cc(OC(C)C)ccc3c2=O)cc1,NI,[3],No inhibition
same,NI,[4],No inhibition
O=C(O)CCCCCOc1ccc2c(=O)cc(-c3ccc(O)cc3)oc2c1,IC50,[1],7 µM
CCOC(=O)CCCCOc1ccc2c(=O)c(-c3ccc(O)cc3)coc2c1,IC50,[1],> 9 µM
CCOC(=O)CCCCOc1ccc(-c2coc3cc(OCCCCC(=O)OCC)ccc3c2=O)cc1,NI,[3],No inhibition
same,NI,[4],No inhibition
CCCCCCC(Oc1ccc2c(=O)c(-c3ccc(O)cc3)coc2c1)C(=O)OCC (stereo not given),IC50,[1],>> 9 uM
O=c1c(-c2ccc(O)cc2)coc2cc(OCCCCCCBr)ccc12,IC50,[2],0.3 µM
CCCCCCOc1ccc(-c2coc3cc(OCCCCCC)ccc3c2=O)cc1,NI,[3],No inhibition
same,NI,[4],No inhibition
C=CCCCCOc1ccc(-c2coc3cc(OCCCCC=C)ccc3c2=O)cc1,NI,[3],No inhibition
same,NI,[4],No inhibition
CCOC(=O)CCCCCOc1ccc(-c2coc3cc(OCCCCCC(=O)OCC)ccc3c2=O)cc1,NI,[3],No inhibition
same,NI,[4],No inhibition
COc1cc2ccc(=O)oc2cc1OC [SCOPARONE],NI,[3],No inhibition
same,NI,[4],No inhibition
O=c1c(-c2ccc(O)cc2)coc2cc(OCCCCBr)ccc12,IC50,[2],0.27 µM
CCCCCCCCCCCCOc1ccc(-c2coc3cc(OCCCCCCCCCCCC)ccc3c2=O)cc1,NI,[3],No inhibition
same,NI,[4],No inhibition
CCCCC(Oc1ccc2c(=O)c(-c3ccc(O)cc3)coc2c1)C(=O)OCC (stereo not given),IC50,[1],>> 9 uM
C=CCCCCOc1ccc2c(=O)c(-c3ccc(O)cc3)coc2c1,IC50,[1],5 µM
